Data published in PMC5651349 (Alzheimer's & Dementia : Translational Research & Clinical …, 2016).

Legend:
[1] = Plasma pharmacokinetics following single dose; type: in vivo; details: both, human, oral
[2] = CSF pharmacokinetics following single dose
[3] = Adverse events, single ascending dose
[4] = Adverse events, multiple ascending dose; details: MAD
[5] = CSF pharmacokinetics following multiple dosing; details: both, human, in vivo
[6] = Plasma and urine pharmacokinetics following multiple dosing; details: for CL renal: Mean renal clearance

C[C@@]1(c2cc(NC(=O)c3ccc(C#N)cn3)ccc2F)C=CSC(N)=N1 [JNJ-54861911]
Tmax [1]: 0.75 to 2 h | half-life [1]: 9 to 16.1 h | Single-dose CSF concentrations ([2]; CSF, 1-mg and 3-mg dose level, elderly): generally below the LOQ | Maximal mean concentrations in CSF ([2]; day 1, single dose, range across 10–150 mg): 2.94 to 22.7 ng/mL | Serious AEs (SAEs) ([3]; SAD and MAD studies): no serious AEs | Back pain, participants with AE ([3]; SAD, all JNJ-54861911 participants (10/42)): 23.8% | Headache, participants with AE ([3]; SAD, all JNJ-54861911 participants (16/42)): 38.1% | Tolerability ([3]; single and multiple oral doses between 1 and 150 mg (SAD and MAD studies), healthy participants): well-tolerated | Back pain, participants with AE ([4]; all JNJ-54861911 participants (11/52)): 21.2% | Headache, participants with AE ([4]; all JNJ-54861911 participants (13/52)): 25.0% | Tmax [5]: ~4 h | half-life [5]: 11.7 to 14.4 h | Tmax ([6]; both, human, in vivo): 2 to 4 h | half-life ([6]; both, human, in vivo): 14.4 to 18.5 h | CL renal ([6]; human, in vivo, day 1 (single dose)): 1.85 mL/min | CL renal ([6]; human, in vivo, day 14): 1.92 mL/min | Steady state concentrations reached ([6]; plasma, multiple dosing, all cohorts): ≤ 5 days
